Test results reported in patent US12564193B2, “Isoxazoline-substituted benzamide derivative, and preparation method therefor and use thereof” (SHANDONG UNITED PESTICIDE INDUSTRY CO., LTD., priority 2020, dated 2026).
Where two headings read alike, the source gives them in different places.

What was measured:
Assay type in all cases: in vivo
Pieris rapae = experiment: Insecticidal activity, spray on pre-infested radish plants: Pieris rapae; settings: 144 h, read-out: fatality rate on Pieris rapae
How it was run: (§1)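 First, 30-40 pests are transferred onto 12-15 day old radish plants on a cut leaf, and the soil is covered with sand. The compound solution is then sprayed and left to dry for 1 hour before a mesh cover is fitted. Insect mortality is read visually after 6 days at 25° C and 70% relative humidity.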

Spodoptera litura = experiment: Insecticidal activity, spray on pre-infested radish plants: Spodoptera litura; settings: 144 h, read-out: fatality rate on Spodoptera litura
How it was run: (§2)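 Radish plants (12-15 days), 30-40 pests/plant via leaf cutting, soil sand-covered; spray compound in acetone/methanol/DMSO; dry 1 h; mesh cover; 25° C, 70% RH, 6 d; visual mortality; three replicates.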

Plutella xylostella = experiment: Insecticidal activity, spray on pre-infested radish plants: Plutella xylostella; settings: for pest or weed control at 0.1 ppm / pest or weed control at 1 ppm / pest or weed control at 10 ppm: Plutella xylostella, 144 h, read-out: fatality rate on Plutella xylostella; for Fatality rate on Plutella xylostella (%): Table 3
How it was run: as §2

Chilo suppressalis = experiment: Insecticidal activity, spray on pre-infested radish plants: Chilo suppressalis; settings: for pest or weed control at 0.1 ppm / pest or weed control at 1 ppm / pest or weed control at 10 ppm: Chilo suppressalis, 144 h, read-out: fatality rate on Chilo suppressalis; for Fatality rate on Chilo suppressalis (%): Table 3
How it was run: as §2

Cnaphalocrocis medinalis = experiment: Insecticidal activity, spray on pre-infested radish plants: Cnaphalocrocis medinalis; settings: 144 h, read-out: fatality rate on Cnaphalocrocis medinalis
How it was run: as §1

[1] = test system: Frankliniella occidentalis; experiment: Insecticidal activity, spray on pre-infested radish plants: Frankliniella occidentalis; settings: for pest or weed control at 1 ppm / pest or weed control at 10 ppm / pest or weed control at 25 ppm: Frankliniella occidentalis, 144 h, read-out: fatality rate on Frankliniella occidentalis; for Fatality rate on Frankliniella occidentalis (%): Table 3
How it was run: as §2

Mythimna separata = experiment: Insecticidal activity, spray on pre-infested radish plants: Mythimna separata; settings: for pest or weed control at 0.1 ppm / pest or weed control at 1 ppm / pest or weed control at 10 ppm: Mythimna separata, 144 h, read-out: fatality rate on Mythimna separata; for Fatality rate on Mythimna separata (%): Table 3
How it was run: as §2

Tetranychus cinnabarinus = experiment: Acaricidal activity, slide immersion of female adult mites: Tetranychus cinnabarinus; settings: read-out: fatality rate on Tetranychus cinnabarinus
How it was run: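 Female adult mites stuck dorsally on tape on slides (4 rows of 10), dipped 5 s in test solution, excess blotted, incubated 24 h. Mites with immobile feet on brush touch scored dead; fatality rate calculated.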

With Cc1cc(C2=NOC(c3cc(Cl)c(F)c(Cl)c3)(C(F)(F)F)C2)ccc1C(=O)NCc1cnccc1C(F)(F)F (stereo not drawn) [Compound 3] the pest or weed control at 0.1 ppm (Pieris rapae) was greater than 80%, the pest or weed control at 1 ppm (Pieris rapae) was greater than 80% and the pest or weed control at 10 ppm (Pieris rapae) was greater than 80%. It also gave a pest or weed control at 0.1 ppm (Spodoptera litura) greater than 80%, a pest or weed control at 1 ppm (Spodoptera litura) greater than 80% and a pest or weed control at 10 ppm (Spodoptera litura) greater than 80%. The pest or weed control at 0.1 ppm (Plutella xylostella) was greater than 80%, the pest or weed control at 1 ppm (Plutella xylostella) was greater than 80% and the pest or weed control at 10 ppm (Plutella xylostella) was greater than 80%. The pest or weed control at 0.1 ppm (Chilo suppressalis) was greater than 80%, the pest or weed control at 1 ppm (Chilo suppressalis) was greater than 80% and the pest or weed control at 10 ppm (Chilo suppressalis) was greater than 80%. For the same compound, the pest or weed control at 0.1 ppm (Cnaphalocrocis medinalis) was greater than 80%, the pest or weed control at 1 ppm (Cnaphalocrocis medinalis) was greater than 80% and the pest or weed control at 10 ppm (Cnaphalocrocis medinalis) was greater than 80%. The pest or weed control at 1 ppm [1] was greater than 80%, the pest or weed control at 10 ppm [1] was greater than 80% and the pest or weed control at 25 ppm [1] was greater than 80%. It also gave a pest or weed control at 0.1 ppm (Mythimna separata) greater than 80%, a pest or weed control at 1 ppm (Mythimna separata) greater than 80% and a pest or weed control at 10 ppm (Mythimna separata) greater than 80%. It also gave a pest or weed control at 1 ppm (Tetranychus cinnabarinus; 24 h) greater than 80%, a pest or weed control at 10 ppm (Tetranychus cinnabarinus; 24 h) greater than 80% and a pest or weed control at 25 ppm (Tetranychus cinnabarinus; 24 h) greater than 80%.
For Cc1cc(C2=NOC(c3cc(F)c(F)c(F)c3)(C(F)(F)F)C2)ccc1C(=O)NCCc1cnccc1C(F)(F)F (stereo not drawn) [Compound 18], the pest or weed control at 0.1 ppm (Pieris rapae; dose 0.1 ppm, spray, 6 days) was greater than 80%, the pest or weed control at 1 ppm (Pieris rapae; dose 1 ppm, spray, 6 days) was greater than 80% and the pest or weed control at 10 ppm (Pieris rapae; dose 10 ppm, spray, 6 days) was greater than 80%. It also gave a pest or weed control at 0.1 ppm (Spodoptera litura; dose 0.1 ppm, spray, 6 days) greater than 80%, a pest or weed control at 1 ppm (Spodoptera litura; dose 1 ppm, spray, 6 days) greater than 80% and a pest or weed control at 10 ppm (Spodoptera litura; dose 10 ppm, spray, 6 days) greater than 80%. The pest or weed control at 0.1 ppm (Plutella xylostella; dose 0.1 ppm, spray, 6 days) was greater than 80%, the pest or weed control at 1 ppm (Plutella xylostella; dose 1 ppm, spray, 6 days) was greater than 80% and the pest or weed control at 10 ppm (Plutella xylostella; dose 10 ppm, spray, 6 days) was greater than 80%. The pest or weed control at 0.1 ppm (Chilo suppressalis; dose 0.1 ppm, spray, 6 days) was greater than 80%, the pest or weed control at 1 ppm (Chilo suppressalis; dose 1 ppm, spray, 6 days) was greater than 80% and the pest or weed control at 10 ppm (Chilo suppressalis; dose 10 ppm, spray, 6 days) was greater than 80%. For the same compound, the pest or weed control at 0.1 ppm (Cnaphalocrocis medinalis; dose 0.1 ppm, spray, 6 days) was greater than 80%, the pest or weed control at 1 ppm (Cnaphalocrocis medinalis; dose 1 ppm, spray, 6 days) was greater than 80% and the pest or weed control at 10 ppm (Cnaphalocrocis medinalis; dose 10 ppm, spray, 6 days) was greater than 80%. It also gave a pest or weed control at 1 ppm ([1]; dose 1 ppm, spray, 6 days) greater than 80%, a pest or weed control at 10 ppm ([1]; dose 10 ppm, spray, 6 days) greater than 80% and a pest or weed control at 25 ppm ([1]; dose 25 ppm, spray, 6 days) greater than 80%. The pest or weed control at 0.1 ppm (Mythimna separata; dose 0.1 ppm, spray, 6 days) was greater than 80%, the pest or weed control at 1 ppm (Mythimna separata; dose 1 ppm, spray, 6 days) was greater than 80% and the pest or weed control at 10 ppm (Mythimna separata; dose 10 ppm, spray, 6 days) was greater than 80%. The pest or weed control at 1 ppm (Tetranychus cinnabarinus; dose 1 ppm, immersion 5 seconds, checked after 24 hours) was greater than 80%, the pest or weed control at 10 ppm (Tetranychus cinnabarinus; dose 10 ppm, immersion 5 seconds, checked after 24 hours) was greater than 80% and the pest or weed control at 25 ppm (Tetranychus cinnabarinus; dose 25 ppm, immersion 5 seconds, checked after 24 hours) was greater than 80%.
In the case of Cc1cc(C2=NOC(c3cc(Cl)c(F)c(Cl)c3)(C(F)(F)F)C2)ccc1C(=O)NCc1ncc(Cl)cc1Cl (stereo not drawn) [Compound 11], the pest or weed control at 0.1 ppm (Pieris rapae) is reported as greater than 80%, the pest or weed control at 1 ppm (Pieris rapae) is reported as greater than 80% and the pest or weed control at 10 ppm (Pieris rapae) is reported as greater than 80%. It also gave a pest or weed control at 0.1 ppm (Spodoptera litura) greater than 80%, a pest or weed control at 1 ppm (Spodoptera litura) greater than 80% and a pest or weed control at 10 ppm (Spodoptera litura) greater than 80%. For the same compound, the pest or weed control at 0.1 ppm (Plutella xylostella) was greater than 80%, the pest or weed control at 1 ppm (Plutella xylostella) was greater than 80% and the pest or weed control at 10 ppm (Plutella xylostella) was greater than 80%. It also gave a pest or weed control at 0.1 ppm (Chilo suppressalis) greater than 80%, a pest or weed control at 1 ppm (Chilo suppressalis) greater than 80% and a pest or weed control at 10 ppm (Chilo suppressalis) greater than 80%. The pest or weed control at 0.1 ppm (Cnaphalocrocis medinalis) was greater than 80%, the pest or weed control at 1 ppm (Cnaphalocrocis medinalis) was greater than 80% and the pest or weed control at 10 ppm (Cnaphalocrocis medinalis) was greater than 80%. For the same compound, the pest or weed control at 1 ppm [1] was greater than 80%, the pest or weed control at 10 ppm [1] was greater than 80% and the pest or weed control at 25 ppm [1] was greater than 80%. It also gave a pest or weed control at 0.1 ppm (Mythimna separata) greater than 80%, a pest or weed control at 1 ppm (Mythimna separata) greater than 80% and a pest or weed control at 10 ppm (Mythimna separata) greater than 80%. It also gave a pest or weed control at 1 ppm (Tetranychus cinnabarinus; 24 h) greater than 80%, a pest or weed control at 10 ppm (Tetranychus cinnabarinus; 24 h) greater than 80% and a pest or weed control at 25 ppm (Tetranychus cinnabarinus; 24 h) greater than 80%.
Work on Cc1cc(C2=NOC(c3cc(Cl)c(F)c(Cl)c3)(C(F)(F)F)C2)ccc1C(=O)NCc1ccc(Cl)nc1 (stereo not drawn) [Compound 1, N-((6-chloropyridin-3-yl)methyl)-4-(5-(3,5-dichloro-4-fluorophenyl)-5-(trifluoromethyl)-4,5-dihydroisoxazol-3-yl)-2-methylbenzamide] yielded a pest or weed control at 0.1 ppm (Pieris rapae) greater than 80%, a pest or weed control at 1 ppm (Pieris rapae) greater than 80% and a pest or weed control at 10 ppm (Pieris rapae) greater than 80%. It also gave a pest or weed control at 0.1 ppm (Spodoptera litura) greater than 80%, a pest or weed control at 1 ppm (Spodoptera litura) greater than 80% and a pest or weed control at 10 ppm (Spodoptera litura) greater than 80%. For the same compound, the “Fatality rate on Plutella xylostella (%)” value (Plutella xylostella; 0.1 ppm) was 100%, the “Fatality rate on Plutella xylostella (%)” value (Plutella xylostella; 1 ppm) was 100% and the “Fatality rate on Plutella xylostella (%)” value (Plutella xylostella; 10 ppm) was 100%. The pest or weed control at 0.1 ppm (Plutella xylostella) was greater than 80%, the pest or weed control at 1 ppm (Plutella xylostella) was greater than 80% and the pest or weed control at 10 ppm (Plutella xylostella) was greater than 80%. For the same compound, the “Fatality rate on Chilo suppressalis (%)” value (Chilo suppressalis; 0.1 ppm) was 90%, the “Fatality rate on Chilo suppressalis (%)” value (Chilo suppressalis; 1 ppm) was 100% and the “Fatality rate on Chilo suppressalis (%)” value (Chilo suppressalis; 10 ppm) was 100%. It also gave a pest or weed control at 0.1 ppm (Chilo suppressalis) greater than 80%, a pest or weed control at 1 ppm (Chilo suppressalis) greater than 80% and a pest or weed control at 10 ppm (Chilo suppressalis) greater than 80%. The pest or weed control at 0.1 ppm (Cnaphalocrocis medinalis) was greater than 80%, the pest or weed control at 1 ppm (Cnaphalocrocis medinalis) was greater than 80% and the pest or weed control at 10 ppm (Cnaphalocrocis medinalis) was greater than 80%. For the same compound, the “Fatality rate on Frankliniella occidentalis (%)” value ([1]; 1 ppm) was 95%, the “Fatality rate on Frankliniella occidentalis (%)” value ([1]; 10 ppm) was 100% and the “Fatality rate on Frankliniella occidentalis (%)” value ([1]; 25 ppm) was 100%. It also gave a pest or weed control at 1 ppm [1] greater than 80%, a pest or weed control at 10 ppm [1] greater than 80% and a pest or weed control at 25 ppm [1] greater than 80%. The “Fatality rate on Mythimna separata (%)” value (Mythimna separata; 0.1 ppm) was 95%, the “Fatality rate on Mythimna separata (%)” value (Mythimna separata; 1 ppm) was 100% and the “Fatality rate on Mythimna separata (%)” value (Mythimna separata; 10 ppm) was 100%. It also gave a pest or weed control at 0.1 ppm (Mythimna separata) greater than 80%, a pest or weed control at 1 ppm (Mythimna separata) greater than 80% and a pest or weed control at 10 ppm (Mythimna separata) greater than 80%. For the same compound, the pest or weed control at 1 ppm (Tetranychus cinnabarinus; 24 h) was greater than 80%, the pest or weed control at 10 ppm (Tetranychus cinnabarinus; 24 h) was greater than 80% and the pest or weed control at 25 ppm (Tetranychus cinnabarinus; 24 h) was greater than 80%.
